Results reported in patent US20260274832A1, “COMPOUNDS AND THEIR USE IN TREATING CANCER” (ASTRAZENECA AB, priority 2023, published 2026).

Key:
[1] = target: T1, AR (L702H) in LNCaP cells (Homo sapiens, UniProt P10275, L702H/T878A); experiment: LNCaP Androgen Receptor L702H Imaging Assay (LNCaP cells engineered by CRISPR/Cas9); format: cell-based; details: LNCaP cells with AR L702H mutation, 24 h incubation; for DC50: concentration giving 50% of maximum degradation of AR (L702H) per curve fit; for Dmax: LNCaP
T1 construct: engineered to introduce the mutation L702H into the AR gene using CRISPR/Cas9; endogenous in cells; host or cells: LNCaP cells edited by CRISPR/Cas9 at the AR gene
Summary of the method: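 AR (L702H) degradation, expressed as DC50 and Dmax from curve fits normalized to a positive degrader control, was measured by high-content imaging of anti-AR immunofluorescence. The engineered LNCaP line was dosed over 12 concentrations for 24 h, 0.3% DMSO final, before PFA fixation.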

[2] = target: T2, AR (AR-full length) in LNCaP cells (Homo sapiens, UniProt P10275, T878A); experiment: LNCaP Androgen Receptor Imaging Assay (immunofluorescence of endogenous nuclear AR); format: cell-based; details: 24 h incubation; for DC50: concentration giving 50% of maximum degradation of AR per curve fit, single experiment or average of two or more; for Dmax: LNCaP; for Dmax / LNCaP AR Degradation Dmax: maximum degradation observed, normalized as % of positive control (prior art AR PROTAC at 3 μM)
T2 construct: the prostate cancer cell line LNCaP (expressing AR-full length); endogenous in cells; host or cells: LNCaP
Summary of the method: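 Endogenous nuclear AR level was imaged by immunofluorescence after 24 h compound exposure (12-point dose response, 0.3% DMSO, 37° C./5% CO2) in LNCaP cells. Data were expressed as % of a 3 μM prior-art AR PROTAC control and fitted (bell fit where a hook appeared) to give DC50 and maximum degradation Dmax.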

[3] = maximum degradation observed, normalized as % of positive control

T1 sequence (P10275 whole entry L702H/T878A): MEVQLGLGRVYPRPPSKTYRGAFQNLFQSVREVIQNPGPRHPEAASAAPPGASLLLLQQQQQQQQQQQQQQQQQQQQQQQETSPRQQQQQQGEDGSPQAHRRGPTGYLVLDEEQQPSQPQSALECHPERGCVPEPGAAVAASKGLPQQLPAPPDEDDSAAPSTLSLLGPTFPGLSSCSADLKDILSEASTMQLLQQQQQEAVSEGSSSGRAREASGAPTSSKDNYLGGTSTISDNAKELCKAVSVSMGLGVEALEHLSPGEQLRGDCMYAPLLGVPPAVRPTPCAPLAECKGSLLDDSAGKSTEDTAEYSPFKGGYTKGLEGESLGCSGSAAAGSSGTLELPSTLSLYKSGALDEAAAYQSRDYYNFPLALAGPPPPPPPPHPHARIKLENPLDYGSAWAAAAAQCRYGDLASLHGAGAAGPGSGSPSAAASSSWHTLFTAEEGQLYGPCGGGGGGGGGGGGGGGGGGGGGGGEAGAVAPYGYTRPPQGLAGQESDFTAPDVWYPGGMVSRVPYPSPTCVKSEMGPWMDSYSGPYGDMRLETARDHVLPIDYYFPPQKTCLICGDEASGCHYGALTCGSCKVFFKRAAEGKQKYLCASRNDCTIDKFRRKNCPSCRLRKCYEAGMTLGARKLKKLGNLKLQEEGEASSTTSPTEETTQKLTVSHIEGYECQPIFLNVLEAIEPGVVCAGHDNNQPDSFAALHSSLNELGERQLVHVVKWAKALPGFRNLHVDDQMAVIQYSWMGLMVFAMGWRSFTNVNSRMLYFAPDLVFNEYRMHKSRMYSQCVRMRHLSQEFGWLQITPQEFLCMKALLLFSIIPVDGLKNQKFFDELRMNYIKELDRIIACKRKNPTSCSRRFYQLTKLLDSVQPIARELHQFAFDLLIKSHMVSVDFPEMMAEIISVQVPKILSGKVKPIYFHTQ
T1 sequence (Q96SW2 whole entry partner): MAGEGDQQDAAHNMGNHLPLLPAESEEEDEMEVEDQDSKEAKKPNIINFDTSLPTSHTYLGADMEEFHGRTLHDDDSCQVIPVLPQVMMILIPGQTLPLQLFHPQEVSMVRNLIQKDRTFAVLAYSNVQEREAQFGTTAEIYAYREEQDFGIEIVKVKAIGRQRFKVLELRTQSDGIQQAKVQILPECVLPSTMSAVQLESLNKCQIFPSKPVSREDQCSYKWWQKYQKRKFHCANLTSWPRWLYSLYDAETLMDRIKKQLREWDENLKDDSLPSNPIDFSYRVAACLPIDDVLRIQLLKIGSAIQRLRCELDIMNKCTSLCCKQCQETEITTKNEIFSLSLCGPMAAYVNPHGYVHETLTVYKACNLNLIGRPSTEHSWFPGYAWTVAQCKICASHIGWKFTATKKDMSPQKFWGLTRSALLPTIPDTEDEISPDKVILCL
T2 sequence (P10275 whole entry T878A): as the sequence (P10275 whole entry L702H/T878A) above, with H702L counted along it
T2 sequence (Q96SW2 whole entry partner): as the sequence (Q96SW2 whole entry partner) above

| Structure (SMILES) | DC50 [1] [µM] | Dmax [1, 3] [%] | DC50 [2] [µM] | Dmax [2] [%] | LNCaP AR (L702H) Degradation Dmax [1, 3] [%] | LNCaP AR Degradation Dmax [2] [%] |
| --- | --- | --- | --- | --- | --- | --- |
| N#Cc1c[nH]c2c(N3CCC(c4cccc(N5CCC(CN6CCN(c7ccc8c(c7)CN(C7CCC(=O)NC7=O)C8=O)CC6)CC5)c4)CC3)ccc(Cl)c12 (stereo not shown) [Example 113, 4-Chloro-7-(4-{3-[4-({4-[2-(2,6-dioxopiperidin-3-yl)-1-oxo-2,3-dihydro-1H-isoindol-5-yl]piperazin-1-yl}methyl)piperidin-1-yl]phenyl}piperidin-1-yl)-1H-indole-3-carbonitrile] | 0.036 | 76 | 0.019 | 92 |  |  |
| N#Cc1c[nH]c2c(N3CCC[C@H](c4ccc(N5CCC(CN6CCN(c7cc8c(cc7F)C(=O)N(C7CCC(=O)NC7=O)C8=O)CC6)CC5)cc4)C3)ccc(Cl)c12 (stereo partly drawn) [Example 54, 4-Chloro-7-[(3R)-3-{4-[4-({4-[2-(2,6-dioxopiperidin-3-yl)-6-fluoro-1,3-dioxo-2,3-dihydro-1H-isoindol-5-yl]piperazin-1-yl}methyl)piperidin-1-yl]phenyl}piperidin-1-yl]-1H-indole-3-carbonitrile] | 0.052 | 97 | 0.036 | 77 |  |  |
| N#Cc1c[nH]c2c(N3CCC(c4ccc(N5CCC(CN6CCC(n7ccc8c(N9CCC(=O)NC9=O)cccc87)CC6)CC5)cc4)CC3)cccc12 [Example 59, 7-(4-{4-[4-({4-[4-(2,4-Dioxo-1,3-diazinan-1-yl)-1H-indol-1-yl]piperidin-1-yl}methyl)piperidin-1-yl]phenyl}piperidin-1-yl)-1H-indole-3-carbonitrile] | 0.047 | 95 | 0.051 | 88 |  |  |
| N#Cc1c[nH]c2c(N3CCC(NC(=O)c4ccc(N5CCC(CN6CCN(c7cc8c(cc7F)C(=O)N(C7CCC(=O)NC7=O)C8=O)CC6)CC5)cc4F)CC3)ccc(Cl)c12 (stereo not shown) [Example 161, N-[1-(4-Chloro-3-cyano-1H-indol-7-yl)piperidin-4-yl]-4-[4-({4-[2-(2,6-dioxopiperidin-3-yl)-6-fluoro-1,3-dioxo-2,3-dihydro-1H-isoindol-5-yl]piperazin-1-yl}methyl)piperidin-1-yl]-2-fluorobenzamide] | 0.02 | 98 | 0.007 | 95 |  |  |
| COc1cc(N2CCN(CC3CCN(c4ccc(C5CCN(c6ccc(Cl)c7c(C#N)c[nH]c67)CC5)nc4)CC3)CC2)cc2c1C(=O)N(C1CCC(=O)NC1=O)C2 (stereo not shown) [Example 60, 4-Chloro-7-(4-{5-[4-({4-[2-(2,6-dioxopiperidin-3-yl)-7-methoxy-1-oxo-2,3-dihydro-1H-isoindol-5-yl]piperazin-1-yl}methyl)piperidin-1-yl]pyridin-2-yl}piperidin-1-yl)-1H-indole-3-carbonitrile] | 0.023 | 57 | 0.005 | 93 |  |  |
| N#Cc1c[nH]c2c(N3CCC[C@@H](c4ccc(N5CC6(CCC(CN7CCN(c8ccc9c(c8)CN(C8CCC(=O)NC8=O)C9=O)CC7)CC6)C5)cc4)C3)ccc(Cl)c12 (stereo partly drawn) [Example 130, 4-Chloro-7-[(3S)-3-{4-[7-({4-[2-(2,6-dioxopiperidin-3-yl)-1-oxo-2,3-dihydro-1H-isoindol-5-yl]piperazin-1-yl}methyl)-2-azaspiro[3.5]nonan-2-yl]phenyl}piperidin-1-yl]-1H-indole-3-carbonitrile] | 0.042 | 78 | 0.031 | 99 |  |  |
| N#Cc1c[nH]c2c(N3CCC(c4ccc(N5CC6(CCC(CN7CCN(c8ccc9c(c8)CN(C8CCC(=O)NC8=O)C9=O)CC7)CC6)C5)cc4)CC3)ccc(Cl)c12 (stereo not shown) [Example 129, 4-Chloro-7-(4-{4-[7-({4-[2-(2,6-dioxopiperidin-3-yl)-1-oxo-2,3-dihydro-1H-isoindol-5-yl]piperazin-1-yl}methyl)-2-azaspiro[3.5]nonan-2-yl]phenyl}piperidin-1-yl)-1H-indole-3-carbonitrile] | 0.029 | 99 | 0.02 | 95 |  |  |
| N#Cc1c[nH]c2c(N3CCC(c4ccc(N5CCC(CN6Cc7cc8c(cc7C6)C(=O)N(C6CCC(=O)NC6=O)C8=O)CC5)cc4)CC3)ccc(Cl)c12 (stereo not shown) [Example 75, 4-Chloro-7-{4-[4-(4-{[6-(2,6-dioxopiperidin-3-yl)-5,7-dioxo-3,5,6,7-tetrahydropyrrolo[3,4-f]isoindol-2(1H)-yl]methyl}piperidin-1-yl)phenyl]piperidin-1-yl}-1H-indole-3-carbonitrile] | 0.068 | 83 | 0.062 | 68 |  |  |
| N#Cc1c[nH]c2c(C3CCC(NC(=O)c4ccc(N5CCC(CN6CCC(n7ccc8c(N9CCC(=O)NC9=O)cccc87)CC6)CC5)cc4F)CC3)ccc(Cl)c12 (stereo not shown) [Example 174, N-[4-(4-Chloro-3-cyano-1H-indol-7-yl)cyclohexyl]-4-[4-({4-[4-(2,4-dioxo-1,3-diazinan-1-yl)-1H-indol-1-yl]piperidin-1-yl}methyl)piperidin-1-yl]-2-fluorobenzamide] | 0.013 | 104 | 0.003 | 106 |  |  |
| COc1cc(N2CCN(CC3CCN(c4ccc(C5CCN(c6ccc(Cl)c7c(C#N)c[nH]c67)CC5)cc4)CC3)CC2)cc2c1C(=O)N(C1CCC(=O)NC1=O)C2 (single isomer, unassigned) [Example 16, 4-Chloro-7-[4-(4-{4-[(4-{2-[(3R*)-2,6-dioxopiperidin-3-yl]-7-methoxy-1-oxo-2,3-dihydro-1H-isoindol-5-yl}piperazin-1-yl)methyl]piperidin-1-yl}phenyl)piperidin-1-yl]-1H-indole-3-carbonitrile] | 0.024 | 84 | 0.012 |  |  | 77 |

Second part, the compound after the results:

| DC50 [1] [µM] | Dmax [1, 3] [%] | DC50 [2] [µM] | Dmax [2] [%] | LNCaP AR (L702H) Degradation Dmax [1, 3] [%] | LNCaP AR Degradation Dmax [2] [%] | Structure (SMILES) |
| --- | --- | --- | --- | --- | --- | --- |
| 0.008 | 56 | 0.005 | 83 |  |  | N#Cc1c[nH]c2c(N3CCC(c4ccc(N5CCC(CN6CCN(c7ccc8c(c7)CN(C7CCC(=O)NC7=O)C8=O)CC6)CC5)nn4)CC3)ccc(Cl)c12 (stereo not shown) [Example 64, 4-Chloro-7-(4-{6-[4-({4-[2-(2,6-dioxopiperidin-3-yl)-1-oxo-2,3-dihydro-1H-isoindol-5-yl]piperazin-1-yl}methyl)piperidin-1-yl]pyridazin-3-yl}piperidin-1-yl)-1H-indole-3-carbonitrile] |
| 0.004 | 110 | 0.004 | 100 |  |  | N#Cc1c[nH]c2c(N3CCC(c4ccc(N5CCO[C@H](CN6CCN(c7ccc8c(c7)CN(C7CCC(=O)NC7=O)C8=O)CC6)C5)cc4)CC3)ccc(Cl)c12 (stereo partly drawn) [Example 127, 4-Chloro-7-(4-{4-[(2R)-2-({4-[2-(2,6-dioxopiperidin-3-yl)-1-oxo-2,3-dihydro-1H-isoindol-5-yl]piperazin-1-yl}methyl)morpholin-4-yl]phenyl}piperidin-1-yl)-1H-indole-3-carbonitrile] |
| 0.013 | 103 | 0.01 | 100 |  |  | N#Cc1c[nH]c2c(N3CCC(c4ccc(N5CCC(CN6CCC(n7ccc8c(N9CCC(=O)NC9=O)cccc87)CC6)CC5)cc4)CC3)ccc(F)c12 [Example 6, 7-(4-{4-[4-({4-[4-(2,4-Dioxo-1,3-diazinan-1-yl)-1H-indol-1-yl]piperidin-1-yl}methyl)piperidin-1-yl]phenyl}piperidin-1-yl)-4-fluoro-1H-indole-3-carbonitrile] |
| 0.002 | 88 | 0.003 | 94 |  |  | N#Cc1c[nH]c2c(N3CCCC(NC(=O)c4ccc(N5CCC(CN6CCN(c7ccc8c(c7)CN(C7CCC(=O)NC7=O)C8=O)CC6)CC5)cn4)C3)ccc(Cl)c12 (single isomer, unassigned) [Example 180, N-[(3R*)-1-(4-Chloro-3-cyano-1H-indol-7-yl)piperidin-3-yl]-5-[4-({4-[2-(2,6-dioxopiperidin-3-yl)-1-oxo-2,3-dihydro-1H-isoindol-5-yl]piperazin-1-yl}methyl)piperidin-1-yl]pyridine-2-carboxamide] |
| 0.012 | 97 | 0.006 | 95 |  |  | N#Cc1c[nH]c2c(N3CCC[C@@H](c4ccc(N5CCC(CN6CCN(c7ccc8c(c7)CN(C7CCC(=O)NC7=O)C8=O)CC6)CC5)cc4)C3)ccc(Cl)c12 (stereo partly drawn) [Example 12, 4-Chloro-7-[(3S)-3-{4-[4-({4-[2-(2,6-dioxopiperidin-3-yl)-1-oxo-2,3-dihydro-1H-isoindol-5-yl]piperazin-1-yl}methyl)piperidin-1-yl]phenyl}piperidin-1-yl]-1H-indole-3-carbonitrile] |
| 0.012 |  | 0.007 |  | 106 | 105 | COc1nc(N2CCN(CC3CCN(c4ccc([C@@H]5CCCN(c6ccc(Cl)c7c(C#N)c[nH]c67)C5)cc4)CC3)CC2)cc2c1C(=O)N(C1CCC(=O)NC1=O)C2 (single isomer, unassigned) [Example 40, 4-Chloro-7-[(3S)-3-(4-{4-[(4-{2-[(3S*)-2,6-dioxopiperidin-3-yl]-4-methoxy-3-oxo-2,3-dihydro-1H-pyrrolo[3,4-c]pyridin-6-yl}piperazin-1-yl)methyl]piperidin-1-yl}phenyl)piperidin-1-yl]-1H-indole-3-carbonitrile] |
